We go through 2 compounds from patent US11540987B2, “Composition with stabilized taste and odor (II)” (SYMRISE AG, priority 2015, dated 2023).

SMILES strings stand for the structures.

The nature of this assay: ABTS-assay, inhibition of radical formation. The class given is biochemical. The following applies: for IC50: absorption at 734 nm, mean value from at least 2 independent tests. As for the experimental part: By means of the ABTS-assay the anti-oxidative capacity of 4-hydroxyacetophenone and alpha-tocopherol was compared. 2,2′-azino bis-(3-ethylbenzothiazoline 6-sulfonic acid) (ABTS) was transformed by potassium persulfate into the blue-green radical cation ABTS•^+. Through the addition of 4-hydroxyacetophenone and alpha-tocopherol the radical cations were reduced and discoloration was observed, which was determined photometrically by Absorption at 734 nm. The inhibition of the radical formation of the test substance is calculated by the following formula:
[formula] Wherein the abbreviations have the following meanings: • Atest substance: Absorption of the wells with test substance including 4-hydroxyacetophenone and alpha-tocopherol • Acontrol: Absorption of the wells without test substance
From the inhibition of the radical formation [%] in a series of dilutions of tested samples the IC50 was calculated. This is the concentration at which the radical formation is inhibited by 50%.

Turning to `CC(=O)c1ccc(O)cc1` [4-hydroxyacetophenone], the “fold higher IC50 value than alpha-tocopherol” value was 10 fold and the concentration for half-maximal inhibition (IC50) was 262 µM. Under “in words”, the “antioxidant activity compared with alpha-tocopherol” value is given as “much weaker antioxidant activity”.
As to `Cc1c(C)c2c(c(C)c1O)CC[C@@](C)(CCC[C@H](C)CCC[C@H](C)CCCC(C)C)O2` [alpha-tocopherol, reference compound], the IC50 was 26.8 µM.
